Literature values as cited in paper PMC8854719, “Phase 1A/1B dose-escalation and -expansion study to evaluate the safety, pharmacokinetics, food effects and antitumor activity of pamiparib in advanced solid tumours” (British Journal of Cancer, 2021).
Like-named read-outs stand apart in the source and are kept apart here.

Legend:
[1] = cited from earlier work
ovarian cancer = settings: Phase 2 studies, BRCAmut ovarian cancer after prior platinum-based chemotherapy; cited from earlier work
[2] = other monotherapy studies in advanced cancer (rucaparib: anaemia/decreased haemoglobin)
[3] = separate Phase 3 trials in ovarian cancer

Structure (SMILES)	Anaemia, Grade ≥3 [1, 2]	Anaemia, Grade ≥3 [1, 3]	Anaemia, any Grade [1, 3]	ORR (ovarian cancer)
NC(=O)c1cccc2cn(-c3ccc([C@@H]4CCCNC4)cc3)nc12 [niraparib]	24%	25%	50%	28.0%
O=C(c1cc(Cc2n[nH]c(=O)c3ccccc23)ccc1F)N1CCN(C(=O)C2CC2)CC1 [olaparib]	17%	19%	44%	31.1%
CNCc1ccc(-c2[nH]c3cc(F)cc4c3c2CCNC4=O)cc1 [rucaparib]	24.9%	19%	37%	53.8%
